Read-outs that look alike come from different tables or passages of the source.
Tests used:
[1] = tested on: exendin-4 degradation in rat kidney homogenate; assay: Inhibition of exendin-4 metabolism by protease inhibitors in rat kidney homogenate; assay type: biochemical
[2] = tested on: exendin-4 degradation in rat liver homogenate; assay: Inhibition of exendin-4 metabolism by protease inhibitors in rat liver homogenate; assay type: biochemical
[3] = humans, biologically active GLP-1; cited from earlier work
Text: (§1) In 2003, the International Diabetes Federation (IDF) estimated that almost 200 million people around the world had diabetes mellitus (DM). Approximately 90–95% of people with DM have type 2 diabetes mellitus (T2DM), which is characterized by hyperglycemia, insulin resistance, absolute or relative insulin deficiency, hyperglucagonemia, and increased hepatic glucose production. An optimal therapy for controlling the circulating glucose levels has not been established, and many currently available therapies are associated with unfavorable side effects, which limit their use. […] Although naturally resist ...

[4] = tested on: plasma dipeptidyl peptidase-IV (DPP-IV); settings: circulating GLP-1, rat and human plasma DPP-IV; cited from earlier work
Text: as §1

CCN1C(=O)C=CC1=O [NEM, N-ethylmaleimide]
percentage inhibition of exendin-4 degradation, kidney [1]: not inhibited
percentage inhibition of exendin-4 degradation, liver [2]: not inhibited

C[C@H](CS)C(=O)N1CCC[C@H]1C(=O)O [captopril]
percentage inhibition of exendin-4 degradation, kidney [1]: not inhibited
percentage inhibition of exendin-4 degradation, liver [2]: not inhibited

c1cnc2c(c1)ccc1cccnc12 [1,10-phenanthroline]
percentage inhibition of exendin-4 degradation, kidney [1]: > 77%
percentage inhibition of exendin-4 degradation, liver [2]: > 77%

CC(C)C[C@@H](N)[C@H](O)C(=O)N[C@H](C(=O)N[C@H](C(=O)N[C@@H](CC(=O)O)C(=O)O)C(C)C)C(C)C [amastatin]
percentage inhibition of exendin-4 degradation, kidney [1]: 32%
percentage inhibition of exendin-4 degradation, liver [2]: 13.2%

NC(N)=NCCC[C@H](NC(=O)[C@@H]1CCCN1C(=O)[C@H](N)Cc1ccccc1)C(=O)CCl [PPACK]
percentage inhibition of exendin-4 degradation, kidney [1]: 41%
percentage inhibition of exendin-4 degradation, liver [2]: no effect

CC(C)C[C@H](NC(=O)[C@@H](O)[C@H](N)Cc1ccccc1)C(=O)O [bestatin]
percentage inhibition of exendin-4 degradation, kidney [1]: 11%
percentage inhibition of exendin-4 degradation, liver [2]: 48%

O=S(=O)(F)Cc1ccccc1 [PMSF, phenylmethylsulfonyl fluoride]
percentage inhibition of exendin-4 degradation, kidney [1]: 18%
percentage inhibition of exendin-4 degradation, liver [2]: 65%

O=C(O)CNC(=O)C(CS)Cc1ccccc1 (racemic) [DL-thiorphan]
percentage inhibition of exendin-4 degradation, kidney ([1]; rat kidney homogenate, inhibitor pre-incubated 10 min at 37°C, then exendin-4 10 μM for 30 min, NEM 10 mM, phenanthroline 2 mM, PPACK 210 μM, soybean 1 mg/mL, DL-thiorphan 2 mM, captopril 30 μM, DFP 10 mM, PMSF 1 mM, amastatin 100 μM, bestatin 2 mM, LC-ESI-MS, n = 3): 73%
percentage inhibition of exendin-4 degradation, liver ([2]; rat liver homogenate, inhibitor pre-incubated 10 min at 37°C, then exendin-4 10 μM for 60 min, NEM 10 mM, phenanthroline 2 mM, PPACK 210 μM, soybean 1 mg/mL, DL-thiorphan 2 mM, captopril 30 μM, DFP 10 mM, PMSF 1 mM, amastatin 100 μM, bestatin 2 mM, LC-ESI-MS, n = 3): no effect

glucagon-like peptide 1 [GLP-1]
apparent serum half-life [3]: 1 to 2 min
cleavage by rat and human plasma DPP-IV [4]: rapid proteolytic cleavage

B1: trypsin inhibitor (soybean): soybean trypsin inhibitor (protein, UniProt P01070 25-205, looked up)
Trypsin inhibitor A: DFVLDNEGNPLENGGTYYILSDITAFGGIRAAPTGNERCPLTVVQSRNELDKGIGTIISSPYRIRFIAEGHPLSLKFDSFAVIMLCVGIPTEWSVVEDLPEGPAVKIGENKDAMDGWFRLERVSDDEFNNYKLVFCPQQAEDDKCGDIGISIDHDDGTRRLVVSKNKPLVVQFQKLDKESL
percentage inhibition of exendin-4 degradation, kidney [1]: no effect
percentage inhibition of exendin-4 degradation, liver [2]: 20%

— paper PMC4344207 (PLoS ONE, 2015)
